Data: ChEMBL document CHEMBL2311510, “A new single-photon emission computed tomography (SPECT) imaging agent for serotonin transporters: [(125)I]Flip-IDAM, (2-((2-((dimethylamino)methyl)-4-iodophenyl)thio)phenyl)methanol” (Bioorg Med Chem Lett, 2013)

How the values were obtained:
Pancreas [1] = experiment: Biodistribution in Sprague-Dawley rat pancreas at 11 uCi, iv measured 30 mins post compound dose; assay type: ADME, organism-based; conditions: in vivo, 0.5 h
Muscle tissue = experiment: Biodistribution in Sprague-Dawley rat muscle at 11 uCi, iv measured 2 mins post compound dose; assay type: ADME, organism-based; conditions: in vivo
Pancreas [2] = experiment: Biodistribution in Sprague-Dawley rat pancreas at 11 uCi, iv measured 60 mins post compound dose; assay type: ADME, organism-based; conditions: in vivo, 1 h
Spleen [3] = experiment: Biodistribution in Sprague-Dawley rat spleen at 11 uCi, iv measured 30 mins post compound dose; assay type: ADME, organism-based; conditions: in vivo, 0.5 h
Nucleic Acid [4] = experiment: Ratio of drug level in striatum to cerebellum in Sprague-Dawley rat at 11 uCi, iv measured 2 mins post compound dose; assay type: ADME, organism-based; conditions: in vivo
Nucleic Acid [5] = experiment: Ratio of drug level in striatum to cerebellum in Sprague-Dawley rat at 11 uCi, iv measured 60 mins post compound dose; assay type: ADME, organism-based; conditions: in vivo, 1 h
Blood [6] = experiment: Biodistribution in Sprague-Dawley rat blood at 11 uCi, iv measured 60 mins post compound dose; assay type: ADME, organism-based; conditions: in vivo, 1 h
Zone of skin [7] = experiment: Biodistribution in Sprague-Dawley rat skin assessed as compound level per organ at 11 uCi, iv measured 30 mins post compound dose; assay type: ADME, organism-based; conditions: in vivo, 0.5 h
Heart [8] = experiment: Biodistribution in Sprague-Dawley rat heart at 11 uCi, iv measured 30 mins post compound dose; assay type: ADME, organism-based; conditions: in vivo, 0.5 h
Brain [9] = experiment: Biodistribution in Sprague-Dawley rat rest of brain at 11 uCi, iv measured 60 mins post compound dose; assay type: ADME, organism-based; conditions: in vivo, 1 h
Spleen [10] = experiment: Biodistribution in Sprague-Dawley rat spleen assessed as compound level per organ at 11 uCi, iv measured 30 mins post compound dose; assay type: ADME, organism-based; conditions: in vivo, 0.5 h
Brain [11] = experiment: Biodistribution in Sprague-Dawley rat brain at 11 uCi, iv measured 120 mins post compound dose; assay type: ADME, organism-based; conditions: in vivo, 2 h
Liver [12] = experiment: Biodistribution in Sprague-Dawley rat liver at 11 uCi, iv measured 120 mins post compound dose; assay type: ADME, organism-based; conditions: in vivo, 2 h
Zone of skin [13] = experiment: Biodistribution in Sprague-Dawley rat skin at 11 uCi, iv measured 60 mins post compound dose; assay type: ADME, organism-based; conditions: in vivo, 1 h
Blood [14] = experiment: Biodistribution in Sprague-Dawley rat blood assessed as compound level per organ at 11 uCi, iv measured 60 mins post compound dose; assay type: ADME, organism-based; conditions: in vivo, 1 h
Cerebellum = experiment: Biodistribution in Sprague-Dawley rat cerebellum at 11 uCi, iv measured 120 mins post compound dose; assay type: ADME, organism-based; conditions: in vivo, 2 h
Bone [15] = experiment: Biodistribution in Sprague-Dawley rat bone at 11 uCi, iv measured 60 mins post compound dose; assay type: ADME, organism-based, Bone element; conditions: in vivo, 1 h
Liver [16] = experiment: Biodistribution in Sprague-Dawley rat liver at 11 uCi, iv measured 2 mins post compound dose; assay type: ADME, organism-based; conditions: in vivo
Brain [17] = experiment: Biodistribution in Sprague-Dawley rat brain at 11 uCi, iv measured 60 mins post compound dose; assay type: ADME, organism-based; conditions: in vivo, 1 h
Nucleic Acid [18] = experiment: Ratio of drug level in hypothalamus to cerebellum in Sprague-Dawley rat at 11 uCi, iv measured 30 mins post compound dose; assay type: ADME, organism-based; conditions: in vivo, 0.5 h
Nucleic Acid [19] = experiment: Ratio of drug level in striatum to cerebellum in Sprague-Dawley rat at 11 uCi, iv measured 120 mins post compound dose; assay type: ADME, organism-based; conditions: in vivo, 2 h
Liver [20] = experiment: Biodistribution in Sprague-Dawley rat liver assessed as compound level per organ at 11 uCi, iv measured 30 mins post compound dose; assay type: ADME, organism-based; conditions: in vivo, 0.5 h
Liver [21] = experiment: Biodistribution in Sprague-Dawley rat liver assessed as compound level per organ at 11 uCi, iv measured 60 mins post compound dose; assay type: ADME, organism-based; conditions: in vivo, 1 h
Striatum = experiment: Biodistribution in Sprague-Dawley rat striatum at 11 uCi, iv measured 2 mins post compound dose; assay type: ADME, organism-based; conditions: in vivo
Zone of skin [22] = experiment: Biodistribution in Sprague-Dawley rat skin at 11 uCi, iv measured 30 mins post compound dose; assay type: ADME, organism-based; conditions: in vivo, 0.5 h
Brain [23] = experiment: Biodistribution in Sprague-Dawley rat brain assessed as compound level per organ at 11 uCi, iv measured 120 mins post compound dose; assay type: ADME, organism-based; conditions: in vivo, 2 h
Bone [24] = experiment: Biodistribution in Sprague-Dawley rat bone assessed as compound level per organ at 11 uCi, iv measured 120 mins post compound dose; assay type: ADME, organism-based, Bone element; conditions: in vivo, 2 h
Nucleic Acid [25] = experiment: Ratio of drug level in hypothalamus to cerebellum in Sprague-Dawley rat at 11 uCi, iv measured 2 mins post compound dose; assay type: ADME, organism-based; conditions: in vivo
Heart [26] = experiment: Biodistribution in Sprague-Dawley rat heart assessed as compound level per organ at 11 uCi, iv measured 30 mins post compound dose; assay type: ADME, organism-based; conditions: in vivo, 0.5 h
Blood [27] = experiment: Biodistribution in Sprague-Dawley rat blood at 11 uCi, iv measured 2 mins post compound dose; assay type: ADME, organism-based; conditions: in vivo

Drug uptake (Pancreas [1]): 0.56 % ID/g
Drug uptake (Muscle tissue): 0.26 % ID/g
Drug uptake (Pancreas [2]): 0.28 % ID/g
Drug uptake (Spleen [3]): 0.55 % ID/g
Ratio (Nucleic Acid [4]): 0.84
Ratio (Nucleic Acid [5]): 2.12
Drug uptake (Blood [6]): 0.22 % ID/g
Drug uptake (Zone of skin [7]): 9.38 %ID
Drug uptake (Heart [8]): 0.38 % ID/g
Drug uptake (Brain [9]): 0.13 % ID/g
Drug uptake (Spleen [10]): 0.23 %ID
Drug uptake (Brain [11]): 0.06 % ID/g
Drug uptake (Liver [12]): 0.41 % ID/g
Drug uptake (Zone of skin [13]): 0.2 % ID/g
Drug uptake (Blood [14]): 3.26 %ID
Drug uptake (Cerebellum): 0.05 % ID/g
Drug uptake (Bone [15]): 0.23 % ID/g
Drug uptake (Liver [16]): 1.23 % ID/g
Drug uptake (Brain [17]): 0.14 % ID/g
Ratio (Nucleic Acid [18]): 4.01
Ratio (Nucleic Acid [19]): 1.89
Drug uptake (Liver [20]): 9.09 %ID
Drug uptake (Liver [21]): 3.8 %ID
Drug uptake (Striatum): 1.28 % ID/g
Drug uptake (Zone of skin [22]): 0.31 % ID/g
Drug uptake (Brain [23]): 0.13 %ID
Drug uptake (Bone [24]): 0.01 %ID
Ratio (Nucleic Acid [25]): 1.02
Drug uptake (Heart [26]): 0.28 %ID
Drug uptake (Blood [27]): 0.44 % ID/g
SMILES: CN(C)Cc1cc([125I])ccc1Sc1ccccc1CO
